Data from PubChem BioAssay (NCI).
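Method: 48-hour compound exposure of cells in 96-well plates, five concentrations, linear interpolation of endpoints. TGI: total growth inhibition.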

What was measured:
Assay in all cases: NCI anticancer screen, dose series, 48 h
[1] = system: EKVX NSCLC
[2] = system: MOLT-4 leukemia
[3] = system: 786-0 renal
[4] = system: NCI/ADR-RES ovarian
[5] = system: CAKI-1 renal
[6] = system: OVCAR-3 ovarian
[7] = system: A549 NSCLC
[8] = system: HT29 colon
[9] = system: MALME-3M melanoma
[10] = system: DU-145 prostate

Structure (SMILES)	TGI [1] [µM]	TGI [2] [µM]	TGI [3] [µM]	TGI [4] [µM]	TGI [5] [µM]	TGI [6] [µM]	TGI [7] [µM]	TGI [8] [µM]	TGI [9] [µM]	TGI [10] [µM]
COC(=O)C1CC(C=[N+](C)C)=C(SC)N1C(=O)OCc1ccccc1 (stereo not given)	> 100	> 100	> 100	> 100	> 100	> 100	> 100	> 100	> 100	> 100
Cc1ccc(-c2csc(=Nc3ccccc3)n2NC(=O)c2ccncc2)cc1	> 100	> 76.8	> 100	> 90.5	> 100	> 100	> 100	60	> 100	> 100
C(=C(c1ccc(OC2CCCCO2)cc1)c1ccc(OC2CCCCO2)cc1)c1ccccc1 (stereo not given)	1.83	> 100	1.62	2.92	1.92	1.75	1.69	1.28	2.24	2.11
C#CCn1c(=O)c2ccccc2n(CC#C)c1=O	> 10	> 10	> 10	> 10	> 10	> 10	> 10	> 10	> 10	> 10
CC(=O)N(C(=O)CC(=O)N1N=C(c2ccccc2)C(N=Nc2ccccc2[N+](=O)[O-])C1=O)c1ccc(Cl)cc1 (stereo not given)	> 10	> 10	> 10	> 10	> 10	> 10	> 10	> 10	> 10	> 10
C=CC1(CC/C(=C\[N+](=O)[O-])c2ccc(OC)c(OC)c2)OCC(C)(C)CO1	40.1	6.05	37.9	35.5	52.9	39.8	> 100	97.8	45.5	33.1
CC(C)=CCC[C@@H](C)c1c(O)c(O)c(C)c2nccnc12	> 100	> 53.1	> 100	17.7	> 90.3	> 100	> 100	> 65.6	66.7	> 100
Cc1ccc(N(Cc2ccccc2)Cc2ccccc2)cc1	> 100	79.3	> 100	> 100	> 100	> 100	> 100	> 100	61	> 100
O=[N+]([O-])c1cc(C=NC23CC4CC(CC(C4)C2)C3)ccc1Cl	> 61.8	27	41.2	70.9	18.7	33.9	> 100	39.8	42.5	> 60.4
O=C1CCCCC1CN1CCCCC1 (stereo not given)	> 100	> 100	> 100	> 100	> 100	> 100	> 100	> 100	> 100	> 100
Cc1ccccc1C(=N)c1ccccc1Cc1cccc2ccccc12	> 100	42.3	41	88.6	> 100	26.6	> 100	> 100	27.3	42.5
N#CC(NCc1cccc(CNC(C#N)c2ccccc2)c1)c1ccccc1 (stereo not given)	> 100	39	> 100	> 100	> 100	> 100	> 100	30.8	65.9	> 100
CC(=O)c1c2c(c3ccccc3c1O)O[C@@H]1OCC[C@H]21	> 100	> 100	> 100	> 100	> 100	> 100	> 100	> 100	> 100	> 100
Nn1c(-c2ccccc2)n[nH]c1=O	> 100	> 100	> 100	> 100	> 100	> 100	> 100	> 100	> 100	> 100
COc1cccc(Nc2nc(-c3cccs3)nc3cc(OC)c(OC)cc23)c1	> 100	> 100	46	63.8	73.4	51.1	> 100	48.8	> 100	> 100
Cc1ccnc(NS(=O)(=O)c2ccc(N=[N+]=[N-])cc2)n1	> 100	> 60.4	> 100	> 100	> 100	> 100	> 100	> 100	> 100	> 100
CC1CN(C)c2ccccc2N=C1NN (stereo not given)	> 100	> 100	> 100	> 100	> 100	> 100	> 100	> 100	> 100	> 100
O=C(Cc1ccc(O)c(O)c1)NCc1c[nH]c2ccccc12	> 100	> 100	> 100	> 100	> 100	> 100	> 100	> 100	76.5	> 100
CCCCCC1=CC(=O)C1(Cl)Cl	49.6	15.3	35.8	86.6	23.3	27	71.5	36.7	27.4	26.1
C[C@]12CC[C@H](O)CC1=CC[C@@H]1[C@@H]2CC[C@]2(C)C(=N/N)/C(=N\O)C[C@@H]12	> 100	> 100	> 100	> 100	> 100	> 100	> 100	> 100	> 100	> 100
CC1(C(=O)O)CCC2(C)CCC3(C)C(=CC(=O)C4C5(C)CCC(O)C(C)(C)C5CCC43C)C2C1 (stereo not given)	> 100	> 100	> 100	> 100	> 100	37.4	> 100	38.7	> 100	77.3
